Results published in US9695155B2, “Herbicidal substituted pyrimidinyloxy benzene compounds” (E. I. DU PONT DE NEMOURS AND COMPANY, priority 2013, dated 2017).

Assays:
Experiment in all cases: Test E preemergence
goosegrass = assay type: in vivo, Eleusine indica; conditions: for Goosegrass plant response rating: scale 0 to 100 (0 no effect, 100 complete control); for Plant response rating, Goosegrass: scale 0 to 100, 0 no effect, 100 complete control
Source text: (§1) Seeds of plant species selected from corn (Zea mays), soybean (Glycine max), velvetleaf (Abutilon theophrasti), lambsquarters (Chenopodium album), wild poinsettia (Euphorbia heterophylla), palmer pigweed (Amaranthus palmeri), waterhemp (common waterhemp, Amaranthus rudis), surinam grass (Brachiaria decumbens), large (Lg) crabgrass (Digitaria sanguinalis), Brazilian crabgrass (Digitaria horizontalis), fall panicum (Panicum dichotomiflorum), giant foxtail (Setaria faberii), green foxtail (Setaria viridis), goosegrass (Eleusine indica), johnsongrass (Sorghum halepense), ragweed (common ragweed, Ambrosia elatior), barnyardgrass (Echinochloa crus-galli), sandbur (southern sandbur, Cenchrus echinatus), arrowleaf sida (Sida rhombifolia), Italian ryegrass (Lolium multiflorum), dayflower (Virginia (VA) dayflower, Commelina virginica), field bindweed (Convolvulus arvensis), morningglory (Ipomoea coccinea), nightshade (eastern black nightshade, Solanum ptycanthum), kochia (Kochia scoparia), yellow nutsedge (Cyperus esculentus), cocklebur (common cocklebur, Xanthium strumarium), smartweed (ladysthumb smartweed, and hairy beggarticks (Bidens pilosa), were planted into a silt loam soil and treated preemergence with test chemicals formulated in a non-phytotoxic solvent mixture which included a surfactant.
(§2) At the same time, plants from these crop and weed species and also horseweed (Canada horseweed, Conyza canadensis), waterhemp_RES1, (ALS & Triazine resistant common waterhemp, Amaranthus rudis), and waterhemp_RES2, (ALS & HPPD resistant common waterhemp, Amaranthus rudis) were planted in pots containing Redi-Earth® planting medium (Scotts Company, 14111 Scottslawn Road, Marysville, Ohio 43041) comprising spaghnum peat moss, vermiculite, wetting agent and starter nutrients were treated with postemergence applications of test chemicals formulated in the same manner. Plants ranged in height from 2 to 18 cm for postemergence treatments (1- to 4-leaf stage). Treated plants and controls were maintained in a greenhouse for 14 to 21 days, after which time all species were compared to controls and visually evaluated. Plant response ratings, summarized in Table E, are based on a scale of 0 to 100 where 0 is no effect and 100 is complete control. A dash (-) response means no test result.

corn = assay type: in vivo, Zea mays; conditions: for Corn plant response rating: scale 0 to 100 (0 no effect, 100 complete control); for Plant response rating, Corn: scale 0 to 100, 0 no effect, 100 complete control
Source text: as §1, §2

barnyardgrass = assay type: in vivo, Echinochloa crus-galli; conditions: for Barnyardgrass plant response rating: scale 0 to 100 (0 no effect, 100 complete control); for Plant response rating, Barnyardgrass: scale 0 to 100, 0 no effect, 100 complete control
Source text: as §1, §2

morningglory = assay type: in vivo, Ipomoea coccinea; conditions: for Morningglory plant response rating: scale 0 to 100 (0 no effect, 100 complete control); for Plant response rating, Morningglory: scale 0 to 100, 0 no effect, 100 complete control
Source text: as §1, §2

johnsongrass = assay type: in vivo, Sorghum halepense; conditions: for Johnsongrass plant response rating: scale 0 to 100 (0 no effect, 100 complete control); for Plant response rating, Johnsongrass: scale 0 to 100, 0 no effect, 100 complete control
Source text: as §1, §2

giant foxtail = assay type: in vivo, Setaria faberii; conditions: for Foxtail, Giant plant response rating: scale 0 to 100 (0 no effect, 100 complete control); for Plant response rating, Foxtail, Giant: scale 0 to 100, 0 no effect, 100 complete control
Source text: as §1, §2

field bindweed = assay type: in vivo, Convolvulus arvensis; conditions: for Field Bindweed plant response rating: scale 0 to 100 (0 no effect, 100 complete control); for Plant response rating, Field Bindweed: scale 0 to 100, 0 no effect, 100 complete control
Source text: as §1, §2

arrowleaf sida = assay type: in vivo, Sida rhombifolia; conditions: for Arrowleaf Sida plant response rating: scale 0 to 100 (0 no effect, 100 complete control); for Plant response rating, Arrowleaf Sida: scale 0 to 100, 0 no effect, 100 complete control
Source text: as §1, §2

SMILES	Goosegrass plant response rating (goosegrass; 16 g ai/ha)	Goosegrass plant response rating (goosegrass; 31 g ai/ha)	Goosegrass plant response rating (goosegrass; 62 g ai/ha)	Plant response rating, Goosegrass (goosegrass; 125 g ai/ha)	Plant response rating, Goosegrass (goosegrass; 250 g ai/ha)	Corn plant response rating (corn; 16 g ai/ha)	Corn plant response rating (corn; 31 g ai/ha)	Corn plant response rating (corn; 62 g ai/ha)	Plant response rating, Corn (corn; 125 g ai/ha)	Plant response rating, Corn (corn; 250 g ai/ha)	Barnyardgrass plant response rating (barnyardgrass; 16 g ai/ha, preemergence)	Barnyardgrass plant response rating (barnyardgrass; 31 g ai/ha, preemergence)	Plant response rating, Barnyardgrass (barnyardgrass; Preemergence, 62 g ai/ha)	Plant response rating, Barnyardgrass (barnyardgrass; preemergence, 125 g ai/ha)	Plant response rating, Barnyardgrass (barnyardgrass; preemergence, 250 g ai/ha)	Morningglory plant response rating (morningglory; 31 g ai/ha)	Morningglory plant response rating (morningglory; 62 g ai/ha)	Plant response rating, Morningglory (morningglory; 125 g ai/ha)	Plant response rating, Morningglory (morningglory; 250 g ai/ha)	Johnsongrass plant response rating (johnsongrass; 31 g ai/ha)	further results
N#Cc1cccc(Oc2ncc(F)cn2)c1-n1cc(Cl)cn1 [Compound 73]	0	20	70	98	100	0	0	0	0	5	0	0	0	20	75	0	10	30	60	20	Morningglory plant response rating (morningglory; 16 g ai/ha): 0; Johnsongrass plant response rating (johnsongrass; 16 g ai/ha): 0; Johnsongrass plant response rating (johnsongrass; 62 g ai/ha): 20; Plant response rating, Johnsongrass (johnsongrass; 125 g ai/ha): 35; Plant response rating, Johnsongrass (johnsongrass; 250 g ai/ha): 85; Foxtail, Giant plant response rating (giant foxtail; 16 g ai/ha): 0; Foxtail, Giant plant response rating (giant foxtail; 31 g ai/ha): 20; Foxtail, Giant plant response rating (giant foxtail; 62 g ai/ha): 50; Plant response rating, Foxtail, Giant (giant foxtail; 125 g ai/ha): 95; Plant response rating, Foxtail, Giant (giant foxtail; 250 g ai/ha): 100; Field Bindweed plant response rating (field bindweed; 16 g ai/ha): 0; Field Bindweed plant response rating (field bindweed; 31 g ai/ha): 15; Field Bindweed plant response rating (field bindweed; 62 g ai/ha): 50; Plant response rating, Field Bindweed (field bindweed; 125 g ai/ha): 75; Plant response rating, Field Bindweed (field bindweed; 250 g ai/ha): 85; Arrowleaf Sida plant response rating (arrowleaf sida; 16 g ai/ha, preemergence): 5; Arrowleaf Sida plant response rating (arrowleaf sida; 31 g ai/ha, preemergence): 40; Plant response rating, Arrowleaf Sida (arrowleaf sida; Preemergence, 62 g ai/ha): 80; Plant response rating, Arrowleaf Sida (arrowleaf sida; preemergence, 125 g ai/ha): 100; Plant response rating, Arrowleaf Sida (arrowleaf sida; preemergence, 250 g ai/ha): 100
N#Cc1cccc(Oc2ncc(Cl)cn2)c1-n1cc(C(F)(F)F)cn1 [Compound 58, 3-[(5-chloro-2-pyrimidinyl)oxy]-2-[4-(trifluoromethyl)-1H-pyrazol-1-yl]benzonitrile]	10	70	95	100	100	0	5	40	65	70	20	40	90	95	98	50	100	100	100	35	Johnsongrass plant response rating (johnsongrass; 62 g ai/ha): 95; Plant response rating, Johnsongrass (johnsongrass; 125 g ai/ha): 95; Plant response rating, Johnsongrass (johnsongrass; 250 g ai/ha): 100; Foxtail, Giant plant response rating (giant foxtail; 16 g ai/ha): 75; Foxtail, Giant plant response rating (giant foxtail; 31 g ai/ha): 100; Foxtail, Giant plant response rating (giant foxtail; 62 g ai/ha): 100; Plant response rating, Foxtail, Giant (giant foxtail; 125 g ai/ha): 100; Plant response rating, Foxtail, Giant (giant foxtail; 250 g ai/ha): 100; Field Bindweed plant response rating (field bindweed; 16 g ai/ha): 0; Field Bindweed plant response rating (field bindweed; 31 g ai/ha): 20; Field Bindweed plant response rating (field bindweed; 62 g ai/ha): 70; Plant response rating, Field Bindweed (field bindweed; 125 g ai/ha): 98; Plant response rating, Field Bindweed (field bindweed; 250 g ai/ha): 100; Arrowleaf Sida plant response rating (arrowleaf sida; 16 g ai/ha, preemergence): 80; Arrowleaf Sida plant response rating (arrowleaf sida; 31 g ai/ha, preemergence): 100; Plant response rating, Arrowleaf Sida (arrowleaf sida; Preemergence, 62 g ai/ha): 100; Plant response rating, Arrowleaf Sida (arrowleaf sida; preemergence, 125 g ai/ha): 100; Plant response rating, Arrowleaf Sida (arrowleaf sida; preemergence, 250 g ai/ha): 100
